Biological target: Ralstonia pickettii 12D FAD dependent oxidoreductase (SEQ ID NO:9), variant QYY, S327Q/S366Y/A473Y (Ralstonia pickettii, UniProt A0ABM9ITV6, A473Y/S327Q/S366Y)
Type: biochemical
Conditions: read-out: Km (Mal)

Molecule `OC[C@H]1O[C@H](O[C@H]2[C@H](O)[C@@H](O)C(O)O[C@@H]2CO)[C@H](O)[C@@H](O)[C@@H]1O` (stereo partly shown) [Mal, maltose] has a Km of over 100 mM.

From US20120107903A1 (priority 2010, published 2012)
